Results on two compounds are retold here after US7417122B2, “Mammalian galanin receptors” (Schering Corporation, priority 1997, dated 2008).

The target in this assay is T1, rat GalR3 receptor (Rattus norvegicus, UniProt O88626).
T1 construct: expressed in transfected cells; host or cells: COS-7 cells (ATCC CRL 1651), transient electroporation with pCR 3.1; membrane preparation
T1 sequence (O88626 1-370 P53Q/R54G/T57Q/P127Q/R137C/A150G/W176L/A183R/T188A/F210L/C272I/R311C): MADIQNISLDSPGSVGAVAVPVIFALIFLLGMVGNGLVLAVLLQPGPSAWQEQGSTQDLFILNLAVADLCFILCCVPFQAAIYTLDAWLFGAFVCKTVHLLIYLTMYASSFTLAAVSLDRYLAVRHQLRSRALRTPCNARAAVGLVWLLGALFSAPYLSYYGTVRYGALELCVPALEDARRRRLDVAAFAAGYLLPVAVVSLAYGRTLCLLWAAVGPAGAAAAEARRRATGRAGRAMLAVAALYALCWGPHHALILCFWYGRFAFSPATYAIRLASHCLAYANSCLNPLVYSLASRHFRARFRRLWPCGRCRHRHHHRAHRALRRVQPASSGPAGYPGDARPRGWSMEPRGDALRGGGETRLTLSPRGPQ
The experiment in a line: 125I-porcine galanin competition binding to membranes of COS-7 cells transfected with rat GalR3 receptor. To be noted: FIG. 2, 125I-porcine galanin binding to rat GalR3 membranes. The procedure:
Transfection was carried out as follows. Confluent COS-7 cells (ATCC CRL 1651) grown in DMEVI supplemented with 10% fetal calfserum (FCS) with 100 units/ml penicillin and 100 μg/ml streptomycin were split 1:6 into 150 mm dishes (Nunc) three days prior to transfection. On the day of transfection, the cells were approximately 90% confluent and trypsinized off plates and washed two times with PBS without Mg^++ and Ca^++. The cells were resuspended in Krebs Ringer's buffer at a density of approximately 1.2×10^7 cells/ml. […]
To each plate, 5 ml of 5 mM Hepes buffer (pH 7.4), 0.1 mM PMSF, and 0.1 mg/ml bacitracin were added and incubated at room temperature for 15 minutes. […] Protein concentrations were determined using a […] (bicinchoninic acid) method (Pierce, Rockford, Ill.).
Binding of ^125I-porcine-galanin to the membrane preparations was performed in a buffer containing 25 mM Tris-Cl (pH7.4), 1% bovine serim albumin (w/v), 0.1% bacitracin, 2 μg/ml leupeptin and 10 mM MgCl2. […] All data were analyzed using non-linear regression software (Prism, GraphPad, San Diego, Calif.), and the Ki was calculated using the method of Cheng and Prusoff [Biochem. Pharmacol. 22:3099-3108 (1973)].

Non-standard residues stand in square brackets, D forms with d. Residues, ends and D or L forms follow the SMILES beside them.

On to `CC(C)C[C@H](NC(=O)[C@H](CC(C)C)NC(=O)[C@@H](Cc1c[nH]c2ccccc12)NC(=O)[C@H](Cc1ccccc1)NC(=O)[C@@H](Cc1c[nH]c2ccccc12)NC(=O)[C@H](CCC(N)=O)NC(=O)[C@H](CCC(N)=O)NC(=O)[C@@H]1CCCN1C(=O)[C@H](CCCCN)NC(=O)[C@@H]1CCCN1C(=O)[C@@H](CCCNC(=N)N)NC(=O)[C@@H]1CCCN1C(=O)CNC(=O)[C@H](CC(C)C)NC(=O)[C@H](CC(C)C)NC(=O)[C@H](Cc1ccc(O)cc1)NC(=O)CNC(=O)[C@H](C)NC(=O)[C@H](CO)NC(=O)[C@H](CC(N)=O)NC(=O)[C@H](CC(C)C)NC(=O)[C@@H](NC(=O)[C@H](Cc1c[nH]c2ccccc12)NC(=O)CN)[C@@H](C)O)C(N)=O` [chimeric galanin peptide C7] (H-GWTLNSAGYLLGP[dR]PKPQQ[dW]F[dW]LL-NH2; N-terminus and C-terminus assumed), for which the “competitive inhibition of the labeled galanin” value is “competitive inhibitors”. Next, `CC[C@H](C)[C@H](NC(=O)[C@H](C)NC(=O)[C@H](Cc1c[nH]cn1)NC(=O)[C@@H]1CCCN1C(=O)CNC(=O)[C@H](CC(C)C)NC(=O)[C@H](CC(C)C)NC(=O)[C@H](Cc1ccc(O)cc1)NC(=O)CNC(=O)[C@H](C)NC(=O)[C@H](CO)NC(=O)[C@H](CC(N)=O)NC(=O)[C@H](CC(C)C)NC(=O)[C@@H](NC(=O)[C@@H](N)Cc1c[nH]c2ccccc12)[C@@H](C)O)C(=O)N[C@@H](CC(=O)O)C(=O)N[C@@H](CC(N)=O)C(=O)N[C@@H](Cc1c[nH]cn1)C(=O)N[C@@H](CCCNC(=N)N)C(=O)N[C@@H](CO)C(=O)N[C@@H](Cc1ccccc1)C(=O)N[C@@H](CO)C(=O)N[C@@H](CC(=O)O)C(=O)N[C@@H](CCCCN)C(=O)N[C@@H](Cc1c[nH]cn1)C(=O)NCC(=O)N[C@@H](CC(C)C)C(=O)N[C@H](C(N)=O)[C@@H](C)O` [galanin(2-29)]: “competitive inhibitors”.
